Toxic doses and inconclusive results are not listed.
Test system: L1210 leukemia ip in BDF1 mice, survival T/C
Assay: NCI In Vivo Anticancer Drug Screen. Data for tumor model L1210 Leukemia (intraperitoneal) in B6D2F1 (BDF1) mice
Settings: endpoint: mean survival time, higher = longer survival
In short: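 Survival endpoint. Drug-treated group vs vehicle group, expressed as T divided by C. Tumor passaged by transplantation.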

[1] = dose: 100.0 mg/kg/injection, schedule: Q01DX009 (ip), vehicle: Klucel (hydroxypropylcellulose) (HPC)
[2] = dose: 200.0 mg/kg/injection, schedule: Q01DX009 (ip), vehicle: Klucel (hydroxypropylcellulose) (HPC)
[3] = dose: 400.0 mg/kg/injection, schedule: Q01DX009 (ip), vehicle: Klucel (hydroxypropylcellulose) (HPC)

With [Cl][Pt+2][Cl].[NH-]C1CCC1.[NH-]C1CCC1 the T/C (dose: 1.0 mg/kg/injection, schedule: Q01DX001 (ip), vehicle: saline with Tween-80) was 95 % of control, the T/C (dose: 1.0 mg/kg/injection, schedule: Q01DX009 (ip), vehicle: saline with Tween-80) was 108 % of control and the T/C (dose: 2.0 mg/kg/injection, schedule: Q01DX001 (ip), vehicle: saline with Tween-80) was 98 % of control. The T/C (dose: 2.0 mg/kg/injection, schedule: Q01DX009 (ip), vehicle: saline with Tween-80) was 115 % of control, the T/C (dose: 4.0 mg/kg/injection, schedule: Q01DX001 (ip), vehicle: saline with Tween-80) was 109 % of control and the T/C (dose: 5.0 mg/kg/injection, schedule: Q04DX003 (ip), vehicle: saline) was 110 % of control. For the same compound, the T/C (dose: 6.25 mg/kg/injection, schedule: Q04DX003 (ip), vehicle: Klucel (hydroxypropylcellulose) (HPC)) was 103 % of control, the T/C (dose: 6.25 mg/kg/injection, schedule: Q04DX003 (ip), vehicle: saline with Tween-80) was 116 % of control and the T/C (dose: 8.0 mg/kg/injection, schedule: Q01DX009 (ip), vehicle: saline with Tween-80) was 157 % of control. The T/C (dose: 10.0 mg/kg/injection, schedule: Q04DX003 (ip), vehicle: saline) was 123 % of control, the T/C (dose: 12.5 mg/kg/injection, schedule: Q04DX003 (ip), vehicle: Klucel (hydroxypropylcellulose) (HPC)) was 106 % of control and the T/C (dose: 16.0 mg/kg/injection, schedule: Q01DX009 (ip), vehicle: saline with Tween-80) was 214 % of control. The T/C (dose: 25.0 mg/kg/injection, schedule: Q04DX003 (ip), vehicle: Klucel (hydroxypropylcellulose) (HPC)) was 110 % of control, the T/C (dose: 32.0 mg/kg/injection, schedule: Q01DX001 (ip), vehicle: saline with Tween-80) was 154 % of control and the T/C (dose: 32.0 mg/kg/injection, schedule: Q01DX009 (ip), vehicle: saline with Tween-80) was 95 % of control. The T/C (dose: 40.0 mg/kg/injection, schedule: Q04DX003 (ip), vehicle: saline) was 152 % of control, the T/C (dose: 50.0 mg/kg/injection, schedule: Q04DX003 (ip), vehicle: saline with Tween-80) was 195 % of control and the T/C (dose: 64.0 mg/kg/injection, schedule: Q01DX001 (ip), vehicle: saline with Tween-80) was 118 % of control. For the same compound, the T/C (dose: 80.0 mg/kg/injection, schedule: Q04DX003 (ip), vehicle: saline) was 110 % of control and the T/C (dose: 100.0 mg/kg/injection, schedule: Q04DX003 (ip), vehicle: saline with Tween-80) was 154 % of control.
In the case of O=C1OC(C(O)CO)C(=O)C1=O (stereo unspecified), the T/C (dose: 50.0 mg/kg/injection, schedule: Q01DX009 (ip), vehicle: saline with Tween-80) is reported as 97 % of control, the T/C (dose: 100.0 mg/kg/injection, schedule: Q01DX001 (ip), vehicle: water) is reported as 102 % of control and the T/C (dose: 100.0 mg/kg/injection, schedule: Q01DX009 (ip), vehicle: saline with Tween-80) is reported as 97 % of control. The T/C (dose: 100.0 mg/kg/injection, schedule: Q01DX009 (ip), vehicle: water) was 105 % of control, the T/C (dose: 100.0 mg/kg/injection, schedule: Q04DX003 (ip), vehicle: water) was 104 % of control and the T/C (dose: 200.0 mg/kg/injection, schedule: Q01DX001 (ip), vehicle: water) was 107 % of control. For the same compound, the T/C (dose: 200.0 mg/kg/injection, schedule: Q01DX009 (ip), vehicle: saline with Tween-80) was 101 % of control, the T/C (dose: 200.0 mg/kg/injection, schedule: Q01DX009 (ip), vehicle: water) was 106 % of control and the T/C (dose: 200.0 mg/kg/injection, schedule: Q04DX003 (ip), vehicle: water) was 109 % of control. The T/C (dose: 400.0 mg/kg/injection, schedule: Q01DX001 (ip), vehicle: water) was 107 % of control, the T/C (dose: 400.0 mg/kg/injection, schedule: Q01DX009 (ip), vehicle: water) was 116 % of control and the T/C (dose: 400.0 mg/kg/injection, schedule: Q04DX003 (ip), vehicle: water) was 115 % of control. For the same compound, the T/C (dose: 800.0 mg/kg/injection, schedule: Q01DX001 (ip), vehicle: water) was 102 % of control, the T/C (dose: 800.0 mg/kg/injection, schedule: Q01DX009 (ip), vehicle: water) was 111 % of control and the T/C (dose: 800.0 mg/kg/injection, schedule: Q04DX003 (ip), vehicle: water) was 121 % of control.
For CCOC(=O)/C(C#N)=C(\CCc1ccccc1)CC(C)C, the T/C (dose: 100.0 mg/kg/injection, schedule: Q04DX002 (ip), vehicle: saline with Tween-80) was 101 % of control, the T/C (dose: 200.0 mg/kg/injection, schedule: Q04DX002 (ip), vehicle: saline with Tween-80) was 101 % of control and the T/C (dose: 400.0 mg/kg/injection, schedule: Q04DX002 (ip), vehicle: saline with Tween-80) was 104 % of control.
With CN1CC(N(C)C)CCC/C=C\C1=O (stereo unspecified) the T/C (dose: 75.0 mg/kg/injection, schedule: Q01DX001 (ip), vehicle: saline) was 102 % of control.
With CCN(Cc1ccccc1)c1cc(=O)[nH]c(=O)[nH]1 the T/C (dose: 48.0 mg/kg/injection, schedule: Q01DX001 (ip), vehicle: Klucel (hydroxypropylcellulose) (HPC)) was 100 % of control, the T/C (dose: 96.0 mg/kg/injection, schedule: Q01DX001 (ip), vehicle: Klucel (hydroxypropylcellulose) (HPC)) was 102 % of control and the T/C (dose: 192.0 mg/kg/injection, schedule: Q01DX001 (ip), vehicle: Klucel (hydroxypropylcellulose) (HPC)) was 97 % of control.
With Cc1cccc(C)c1NC(=O)Oc1ccc(Cl)cc1Cc1ccccc1 the T/C [1] was 88 % of control, the T/C [2] was 88 % of control and the T/C [3] was 102 % of control.
CN=C(NC)c1ccc(NC(=O)Nc2ccc(NC(=O)Nc3ccc(C(=NC)NC)cc3)cc2)cc1 was tested, and the T/C (dose: 3.94 mg/kg/injection, schedule: Q01DX Z (ip), vehicle: saline) was 108 % of control, the T/C (dose: 4.0 mg/kg/injection, schedule: Q01DX Z (ip), vehicle: carboxymethylcellulose (CMC)) was 107 % of control and the T/C (dose: 5.9 mg/kg/injection, schedule: Q01DX Z (ip), vehicle: saline) was 114 % of control. For the same compound, the T/C (dose: 8.0 mg/kg/injection, schedule: Q01DX Z (ip), vehicle: carboxymethylcellulose (CMC)) was 121 % of control, the T/C (dose: 8.86 mg/kg/injection, schedule: Q01DX Z (ip), vehicle: saline) was 120 % of control and the T/C (dose: 30.0 mg/kg/injection, schedule: Q01DX Z (ip), vehicle: carboxymethylcellulose (CMC)) was 101 % of control. For the same compound, the T/C (dose: 45.0 mg/kg/injection, schedule: Q01DX Z (ip), vehicle: saline) was 115 % of control.
O=C(c1ccc2ccccc2c1)c1cccc(F)c1C(=O)O (tested in a mixture with another compound) was tested, and the T/C (dose: 75.0 mg/kg/injection, schedule: Q01DX001 (ip), vehicle: carboxymethylcellulose (CMC)) was 95 % of control and the T/C (dose: 150.0 mg/kg/injection, schedule: Q01DX001 (ip), vehicle: carboxymethylcellulose (CMC)) was 90 % of control.
Cn1c(C2=CC(=O)c3ccccc3C2=O)c(C2=CC(=O)c3ccccc3C2=O)c2ccccc21 was tested, and the T/C (dose: 50.0 mg/kg/injection, schedule: Q01DX001 (ip), vehicle: saline) was 102 % of control, the T/C (dose: 100.0 mg/kg/injection, schedule: Q01DX001 (ip), vehicle: saline) was 98 % of control and the T/C (dose: 200.0 mg/kg/injection, schedule: Q01DX001 (ip), vehicle: saline) was 104 % of control. For the same compound, the T/C (dose: 400.0 mg/kg/injection, schedule: Q01DX001 (ip), vehicle: saline) was 102 % of control.
With O=C(Oc1ccc(S(=O)(=O)F)cc1Cl)c1ccc(Cl)cc1 the T/C (dose: 100.0 mg/kg/injection, schedule: Q04DX002 (ip), vehicle: Klucel (hydroxypropylcellulose) (HPC)) was 92 % of control, the T/C (dose: 200.0 mg/kg/injection, schedule: Q04DX002 (ip), vehicle: Klucel (hydroxypropylcellulose) (HPC)) was 89 % of control and the T/C (dose: 400.0 mg/kg/injection, schedule: Q04DX002 (ip), vehicle: Klucel (hydroxypropylcellulose) (HPC)) was 89 % of control.
With NC(=S)N/N=C\c1[nH]c(=O)nc2ccccc12 the T/C [1] was 98 % of control, the T/C (dose: 100.0 mg/kg/injection, schedule: Q04DX003 (ip), vehicle: Klucel (hydroxypropylcellulose) (HPC)) was 103 % of control and the T/C [2] was 92 % of control. The T/C (dose: 200.0 mg/kg/injection, schedule: Q04DX003 (ip), vehicle: Klucel (hydroxypropylcellulose) (HPC)) was 100 % of control, the T/C [3] was 95 % of control and the T/C (dose: 400.0 mg/kg/injection, schedule: Q04DX003 (ip), vehicle: Klucel (hydroxypropylcellulose) (HPC)) was 97 % of control.
O=C(Nc1ccc(Cl)cc1[N+](=O)[O-])N1CCN(c2ccccc2)CC1 was tested, and the T/C (dose: 44.0 mg/kg/injection, schedule: Q01DX009 (ip), vehicle: Klucel (hydroxypropylcellulose) (HPC)) was 101 % of control, the T/C (dose: 66.0 mg/kg/injection, schedule: Q01DX009 (ip), vehicle: Klucel (hydroxypropylcellulose) (HPC)) was 97 % of control and the T/C [1] was 101 % of control. For the same compound, the T/C (dose: 150.0 mg/kg/injection, schedule: Q01DX009 (ip), vehicle: Klucel (hydroxypropylcellulose) (HPC)) was 95 % of control, the T/C [2] was 96 % of control and the T/C [3] was 101 % of control.
In the case of CCOC(=O)C(CCC(=O)OC)C1=NC(C)(C)CC(C)O1 (stereo unspecified), the T/C (dose: 100.0 mg/kg/injection, schedule: Q01DX001 (ip), vehicle: Klucel (hydroxypropylcellulose) (HPC)) is reported as 106 % of control, the T/C (dose: 200.0 mg/kg/injection, schedule: Q01DX001 (ip), vehicle: Klucel (hydroxypropylcellulose) (HPC)) is reported as 110 % of control and the T/C (dose: 400.0 mg/kg/injection, schedule: Q01DX001 (ip), vehicle: Klucel (hydroxypropylcellulose) (HPC)) is reported as 97 % of control.
